Laboratory results taken from US20050191668A1, “Methods of using peroxisome proliferator-activated receptor alpha target genes” (priority 2004, published 2005).

Experiments:
Pa21 gene [1] = experiment: Pa21 gene expression by real-time RT-PCR in HuH7 hepatocytes; format: cell-based, human; details: about 20-24 h, vehicle control = 100
Excerpt: (§1) Human hepatocyte HuH7 cells, which are epithelial cells of liver, were obtained from Japan Health Science Research Resources Bank (Osaka, Japan). Human primary adipocytes, which are connective tissue cells specialized for the synthesis and storage of fat, were obtained from Zen-Bio, Inc (Research Triangle Park, NC). Human primary skeletal muscle cells (SKMC) were obtained from Cambrex Bio Science (Walkersville, Md.). PPARα agonists, Wy14643 (Agatha, et al, 2000, Archives of Biochemistry and Biophysics 380:353-359) and fenofibrates were obtained from Cayman Chemical (Ann Arbor, Mich.) and Sigma (St Louis, Mo.), respectively.
(§2) Human HuH7 cells were cultured in Dulbecco's Modified Eagle Medium with 10% Fetal Bovine Serum (Gibco, N.Y.). Cells were treated with charcoal-stripped, delipidated calf serum (5%) (Sigma, St Louis, Mo.) for about 4-18 hours. Then, cells were treated with different concentrations of PPARα agonist (Wy14643 or fenofibrates) for about 20-24 h. Human SKM cells were cultured in Skeletal Muscle Growth Medium (Cambrex Bio Science, Walkersville, Md.), and were treated with different concentrations of PPARα agonist (Wy14643 or fenofibrates) for about 18-20 hours. Human primary adipocytes were cultured in Preadipocyte Medium, (Cat #PM—1, Zen-Bio, Inc., Research Triangle Park, NC), and were treated with different concentrations of PPARα agonist (Wy14643 or fenofibrates) for about 18-20 hours.
(§3) Total RNA was purified from cultured cells following the protocol provided by the manufacturer (Trizon method, Invitrogen Inc. Ca). The polymerase chain reaction (PCR) primers and fluorescent probes (TagMan probes) for Pa9, Pa13, and Pa21 were designed from GenBank sequences of accession numbers W30988, AB000584, and NM_080725, respectively. The primers and probes were designed using the software PrimerDesign (Applied Biosystems, Foster City, Calif.). The PCR primers for Pa9 were SEQ ID NO: 7, (5-[…]) and SEQ ID NO: 8 (5-[…]). […] The PCR primers for Pa13 were SEQ ID NO: 10 (5-[…], T) and SEQ ID NO: 11 (5-[…] T). […] The PCR primers for Pa21 were SEQ ID NO: 13 (5-[…] C) and SEQ ID NO: 14 (5-[…]). […] All primers and probes were synthesized by Keystone Labs (Camarillo, Calif.).
(§4) Reverse transcription (RT) and PCR were conducted in one step using “One-Step RT-PCR Master Mix Reagent” kit (Applied Biosystems, Foster City, Calif.) in ABI PRISM 7700 Sequence Detection System (Applied Biosystems). Each reaction was performed in a total volume of 25 μl containing 40 ng of total RNA. The reaction condition was: 48° C. for 30 minutes, 60° C. for 30 minutes, 94° C. for 5 minutes, followed by 40 cycles of 94° C. for 20 seconds and 60° C. for 1 minute. The primers for 18S ribosomal RNA were developed and provided by Applied Biosystems. The measurement of human 18S ribosomal RNA was used as an internal control for normalization of measuring and loading errors. PCR data were collected by Ct value (the cycle number at which logarithmic PCR plots cross a calculated threshold line) according to the manufacturer's guidelines and the value was used to determine the Δ^Ct (Ct of the target gene minus the Ct of 18S ribosomal RNA controls). Relative mRNA level was calculated using the equation 2^−ΔΔCt as described previously (Heid et al., 1996, Genome Res. 6:986-994).

Pa9 gene = Pa9 gene expression by real-time RT-PCR in primary skeletal muscle cells; format: cell-based, human; details: for Pa9 (W38098) gene expression, Percentage ± SE (%): about 18-20 hours, vehicle control = 100; for Pa9 gene expression, Fold of Induction: Veh = 1.00
Excerpt: as §1, §2, §3, §4
The nucleotide sequence of the human FDRG gene (AX278133) is provided in SEQ ID NO: 1 and the sequence alignment between W30988 and FDRG gene is shown in FIG. 1. […] Quantitative real-time RT-PCR was performed to test whether gene expression of the human FDRG gene is regulated by PPARα.

Pa21 gene [2] = experiment: Pa21 gene expression by real-time RT-PCR in primary adipocytes; format: cell-based, human; details: about 18-20 hours, vehicle control = 100
Excerpt: as §1, §2, §3, §4

human FDRG gene = experiment: FDRG gene expression by real-time RT-PCR in primary skeletal muscle cells; format: cell-based; details: Veh = 1.00, same RNA sample
Method: as §4
The nucleotide sequence of the human FDRG gene (AX278133) is provided in SEQ ID NO: 1 and the sequence alignment between W30988 and FDRG gene is shown in FIG. 1. […] Quantitative real-time RT-PCR was performed to test whether gene expression of the human FDRG gene is regulated by PPARα. […]

## Cc1cccc(Nc2cc(Cl)nc(SCC(=O)O)n2)c1C [Wy14643]
Pa21 gene [1]; 3 uM
  Pa21 (H4960) gene expression, Percentage ± SE (%): 145.5 ± 21.9%
Pa21 gene [1]; 10 uM
  Pa21 (H4960) gene expression, Percentage ± SE (%): 163.6 ± 35%
Pa21 gene [1]; 30 uM
  Pa21 (H4960) gene expression, Percentage ± SE (%): 372.7 ± 17.8%
Pa21 gene [1]; 100 uM
  Pa21 (H4960) gene expression, Percentage ± SE (%): 227.3 ± 14.8%
Pa21 gene [1]; 300 uM
  Pa21 (H4960) gene expression, Percentage ± SE (%): 481.8 ± 12.1%
Pa9 gene; 3 uM
  Pa9 (W38098) gene expression, Percentage ± SE (%): 110 ± 24.5%
Pa9 gene; 10 uM
  Pa9 (W38098) gene expression, Percentage ± SE (%): 230 ± 35.7%
Pa9 gene; 30 uM
  Pa9 gene expression, Fold of Induction: 3.64 fold
  Pa9 (W38098) gene expression, Percentage ± SE (%): 870 ± 30%
Pa9 gene; 100 uM
  Pa9 gene expression, Fold of Induction: 6.45 fold
  Pa9 (W38098) gene expression, Percentage ± SE (%): 860 ± 0.9%
Pa9 gene; 300 uM
  Pa9 (W38098) gene expression, Percentage ± SE (%): 610 ± 10.2%
Pa21 gene [2]; 10 uM
  Pa21 (H4960) gene expression, Percentage ± SE (%): 92 ± 10%
Pa21 gene [2]; 50 uM
  Pa21 (H4960) gene expression, Percentage ± SE (%): 108 ± 2%
Pa21 gene [2]; 250 uM
  Pa21 (H4960) gene expression, Percentage ± SE (%): 314 ± 2.5%
Human FDRG gene; 30 uM
  FDRG gene expression, Fold of Induction: 4.37 fold
Human FDRG gene; 100 uM
  FDRG gene expression, Fold of Induction: 7.8 fold
Human FDRG gene; 100 uM, listed as WY14643
  FDRG gene expression, Fold of Induction: 7.80 fold
